Data reported in ChEMBL document CHEMBL1146327, “Inhibitors of the FEZ-1 metallo-beta-lactamase” (Bioorg Med Chem Lett, 2007).
The source made the active and inactive calls. The rule behind the calls is not given here.

Columns and labels:
Fluoribacter gormanii [1] = assay: Inhibition of metallo-beta-lactamases FEZ1 assessed as residual activity at 100 uM
Bacillus cereus [2] = assay: Inhibition of metallo-beta-lactamases Bc2 assessed as residual activity at 100 uM
[3] = target: Metallo-beta-lactamase type 2 (Aeromonas hydrophila) (UniProt P26918); assay: Inhibition of metallo-beta-lactamases CphA assessed as residual activity at 100 uM
[4] = Inhibition of metallo-beta-lactamases L1 assessed as residual activity at 100 uM
[5] = target: Metallo-beta-lactamase type 2 (Pseudomonas aeruginosa) (UniProt Q7WYA8); assay: Inhibition of metallo-beta-lactamases IMP1 assessed as residual activity at 100 uM
[6] = (§1) Inhibition of metallo-beta-lactamases FEZ1; set-up: species or system Fluoribacter gormanii
Fluoribacter gormanii [7] = assay: as §1; set-up: concentration or dose not given beside the values; settings: concentration not given here
Bacillus cereus [8] = assay: Inhibition of metallo-beta-lactamases Bc2; settings: for inhibition: concentration not given here
[9] = target: Metallo-beta-lactamase type 2 (Pseudomonas aeruginosa) (UniProt Q7WYA8); assay: Inhibition of metallo-beta-lactamases IMP1; settings: for inhibition: concentration not given here
[10] = Inhibition of metallo-beta-lactamases L1; settings: for inhibition: concentration not given here
[11] = target: Metallo-beta-lactamase type 2 (Aeromonas hydrophila) (UniProt P26918); assay: Inhibition of metallo-beta-lactamases CphA; settings: for inhibition: concentration not given here

Sequence of Metallo-beta-lactamase type 2 (Aeromonas hydrophila) (P26918 whole entry): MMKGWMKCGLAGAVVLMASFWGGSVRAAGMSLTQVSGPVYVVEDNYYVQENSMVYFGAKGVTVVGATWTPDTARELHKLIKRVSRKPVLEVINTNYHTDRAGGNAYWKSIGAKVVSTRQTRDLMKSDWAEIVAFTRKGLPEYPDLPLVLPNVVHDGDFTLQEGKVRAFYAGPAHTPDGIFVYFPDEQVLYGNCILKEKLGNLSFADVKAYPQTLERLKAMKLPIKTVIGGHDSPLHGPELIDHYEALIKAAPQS
Sequence of Metallo-beta-lactamase type 2 (Pseudomonas aeruginosa) (Q7WYA8 whole entry): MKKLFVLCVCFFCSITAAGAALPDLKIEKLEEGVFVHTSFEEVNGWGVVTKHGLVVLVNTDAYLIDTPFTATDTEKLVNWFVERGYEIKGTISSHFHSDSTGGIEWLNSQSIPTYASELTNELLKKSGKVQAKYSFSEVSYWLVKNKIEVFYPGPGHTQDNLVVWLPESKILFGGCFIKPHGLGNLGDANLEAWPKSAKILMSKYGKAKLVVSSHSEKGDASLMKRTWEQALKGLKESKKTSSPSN

SMILES	Activity (Fluoribacter gormanii [1]) [%]	Activity (Bacillus cereus [2]) [%]	Activity [3] [%]	Activity [4] [%]	Activity [5] [%]	inhibition (Fluoribacter gormanii [7]) [%]	other results
O=C(NO)c1cc(O)cc(C(=O)c2ccc(O)cc2)c1	15	91	84	102	83	–	–
O=C(O)c1cc(O)cc(C(=O)c2ccc(O)cc2)c1	67	86	83	107	100	–	–
O=C(NO)c1cc(O)cc(O)c1	–	–	–	–	–	–	Ki [6]: 13.3 µM
O=C(NO)c1cc(O)cc(C(=O)NCc2ccccc2)c1	46	103	81	95	81	54	–
O=C(NO)c1cccc(O)c1	–	–	–	–	–	64	Ki [6]: 17.9 µM
O=C(O)CCC(=O)NO	–	–	–	–	–	< 10	inhibition (Bacillus cereus [8]): < 10%; inhibition [9]: < 10%; inhibition [10]: < 10%; inhibition [11]: < 10%
O=C(NO)c1ccc(O)cc1	–	–	–	–	–	53	–
O=C(NO)c1cc(O)cc(C(=O)Nc2ccccc2)c1	42	82	90	103	92	58	–
O=C(NO)c1cc(O)cc(C(=O)N2CCCC2)c1	64	100	86	92	85	36	–
O=C(NO)c1ccccc1	–	–	–	–	–	55	Activity (Bacillus cereus [8]): inactive; Activity [9]: inactive; Activity [10]: inactive; Activity [11]: inactive
O=C(O)c1cc(O)cc(C(=O)NO)c1	92	93	79	97	67	–	–
CNC(=O)c1cc(O)cc(C(=O)NO)c1	47	103	92	96	93	53	–
O=C(NO)c1ccccc1O	–	–	–	–	–	45	–
CCN(CC)C(=O)c1cc(O)cc(C(=O)NO)c1	66	101	90	93	85	34	–
O=C(O)c1cccc(C(=O)NO)c1	–	–	–	–	–	< 10	inhibition (Bacillus cereus [8]): < 10%; inhibition [9]: < 10%; inhibition [10]: < 10%; inhibition [11]: < 10%
